Measured values taken from the NIST ThermoML archive (doi:10.1021/je301103d).
Numbers after ± are expanded uncertainties.

How the values were obtained:
[1] = 101.33 kPa, Liquid; for viscosity: Cone and plate viscometry; for mass density: Vibrating tube method; for electrical conductivity: conductivity meter (DDJS-308A)
[2] = refractive index (Na D-line) (dimensionless); details: 101.33 kPa, Liquid, Standard Abbe refractometry

Work on `C[C@H](N)C(=O)[O-].C[N+](C)(C)CCO` [2-hydroxy-N,N,N-trimethylethanaminium L-alaninate] yielded a viscosity ([1]; 298.15 K) of 385.6 ± 45 mPa·s, a mass density ([1]; 298.15 K) of 1112.94 ± 2 kg/m3 and an electrical conductivity ([1]; 298.15 K) of 0.00213 ± 7e-05 S/m. The viscosity ([1]; 303.15 K) was 234.9 ± 27 mPa·s, the mass density ([1]; 303.15 K) was 1110.07 ± 2 kg/m3 and the electrical conductivity ([1]; 303.15 K) was 0.00577 ± 0.00018 S/m. It also gave a viscosity ([1]; 308.15 K) of 136.8 ± 15 mPa·s, a mass density ([1]; 308.15 K) of 1107.01 ± 2 kg/m3 and an electrical conductivity ([1]; 308.15 K) of 0.00907 ± 0.00027 S/m. It also gave a viscosity ([1]; 313.15 K) of 89 ± 9.9 mPa·s, a mass density ([1]; 313.15 K) of 1104.04 ± 2 kg/m3 and an electrical conductivity ([1]; 313.15 K) of 0.0126 ± 0.00038 S/m. It also gave a viscosity ([1]; 318.15 K) of 51.8 ± 5.7 mPa·s, a mass density ([1]; 318.15 K) of 1101.21 ± 2 kg/m3 and an electrical conductivity ([1]; 318.15 K) of 0.017 ± 0.00051 S/m. It also gave a viscosity ([1]; 323.15 K) of 31.5 ± 3.5 mPa·s, a mass density ([1]; 323.15 K) of 1098.37 ± 2 kg/m3 and an electrical conductivity ([1]; 323.15 K) of 0.0249 ± 0.00075 S/m. It also gave a viscosity ([1]; 328.15 K) of 21.5 ± 2.4 mPa·s, a mass density ([1]; 328.15 K) of 1095.54 ± 2 kg/m3 and an electrical conductivity ([1]; 328.15 K) of 0.0309 ± 0.00093 S/m. It also gave a viscosity ([1]; 333.15 K) of 14 ± 1.5 mPa·s, a mass density ([1]; 333.15 K) of 1092.69 ± 2 kg/m3 and an electrical conductivity ([1]; 333.15 K) of 0.0397 ± 0.0012 S/m. It also gave a viscosity ([1]; 338.15 K) of 10 ± 1.1 mPa·s, a mass density ([1]; 338.15 K) of 1089.85 ± 2 kg/m3 and an electrical conductivity ([1]; 338.15 K) of 0.0518 ± 0.0016 S/m. It also gave a viscosity ([1]; 343.15 K) of 7.4 ± 0.8 mPa·s, a mass density ([1]; 343.15 K) of 1087.04 ± 2 kg/m3 and an electrical conductivity ([1]; 343.15 K) of 0.0655 ± 0.002 S/m. For the same compound, the viscosity ([1]; 348.15 K) was 5.7 ± 0.6 mPa·s, the mass density ([1]; 348.15 K) was 1084.27 ± 2 kg/m3 and the electrical conductivity ([1]; 348.15 K) was 0.0822 ± 0.0025 S/m. The viscosity ([1]; 353.15 K) was 4.4 ± 0.5 mPa·s, the mass density ([1]; 353.15 K) was 1081.51 ± 2 kg/m3 and the electrical conductivity ([1]; 353.15 K) was 0.101 ± 0.003 S/m. The refractive index ([2]; 293.15 K) was 1.5146 ± 0.0011, the refractive index ([2]; 298.15 K) was 1.514 ± 0.0011 and the refractive index ([2]; 303.15 K) was 1.5127 ± 0.0011. The refractive index ([2]; 308.15 K) was 1.5118 ± 0.0011, the refractive index ([2]; 313.15 K) was 1.5105 ± 0.0011 and the refractive index ([2]; 318.15 K) was 1.5094 ± 0.0011. It also gave a refractive index ([2]; 323.15 K) of 1.5084 ± 0.0011, a refractive index ([2]; 328.15 K) of 1.5072 ± 0.0011 and a refractive index ([2]; 333.15 K) of 1.506 ± 0.0011. The refractive index ([2]; 338.15 K) was 1.5052 ± 0.0011 and the refractive index ([2]; 343.15 K) was 1.5041 ± 0.0011.
`C[N+](C)(C)CCO.O=C([O-])[C@@H]1CCCN1` [2-hydroxy-N,N,N-trimethylethanaminium L-prolinate] showed a viscosity ([1]; 298.15 K) of 10644 ± 1600 mPa·s, a mass density ([1]; 298.15 K) of 1121.04 ± 2 kg/m3 and an electrical conductivity ([1]; 298.15 K) of 3e-05 ± 1e-05 S/m. For the same compound, the viscosity ([1]; 303.15 K) was 5437.3 ± 770 mPa·s, the mass density ([1]; 303.15 K) was 1118.21 ± 2 kg/m3 and the electrical conductivity ([1]; 303.15 K) was 0.00013 ± 1e-05 S/m. It also gave a viscosity ([1]; 308.15 K) of 2824.6 ± 380 mPa·s, a mass density ([1]; 308.15 K) of 1115.35 ± 2 kg/m3 and an electrical conductivity ([1]; 308.15 K) of 0.00035 ± 1e-05 S/m. For the same compound, the viscosity ([1]; 313.15 K) was 1515.3 ± 190 mPa·s, the mass density ([1]; 313.15 K) was 1112.49 ± 2 kg/m3 and the electrical conductivity ([1]; 313.15 K) was 0.0007 ± 2e-05 S/m. For the same compound, the viscosity ([1]; 318.15 K) was 839.1 ± 100 mPa·s, the mass density ([1]; 318.15 K) was 1109.61 ± 2 kg/m3 and the electrical conductivity ([1]; 318.15 K) was 0.0013 ± 4e-05 S/m. It also gave a viscosity ([1]; 323.15 K) of 463.5 ± 55 mPa·s, a mass density ([1]; 323.15 K) of 1106.69 ± 2 kg/m3 and an electrical conductivity ([1]; 323.15 K) of 0.00204 ± 6e-05 S/m. The viscosity ([1]; 328.15 K) was 307 ± 36 mPa·s, the electrical conductivity ([1]; 328.15 K) was 0.00291 ± 9e-05 S/m and the viscosity ([1]; 333.15 K) was 163.7 ± 18 mPa·s. For the same compound, the mass density ([1]; 333.15 K) was 1100.61 ± 2 kg/m3, the electrical conductivity ([1]; 333.15 K) was 0.00435 ± 0.00013 S/m and the viscosity ([1]; 338.15 K) was 114 ± 13 mPa·s. The mass density ([1]; 338.15 K) was 1097.81 ± 2 kg/m3, the electrical conductivity ([1]; 338.15 K) was 0.00552 ± 0.00017 S/m and the viscosity ([1]; 343.15 K) was 70.1 ± 7.8 mPa·s. For the same compound, the mass density ([1]; 343.15 K) was 1095.03 ± 2 kg/m3, the electrical conductivity ([1]; 343.15 K) was 0.00649 ± 0.00019 S/m and the viscosity ([1]; 348.15 K) was 46.3 ± 5.1 mPa·s. It also gave a mass density ([1]; 348.15 K) of 1092.12 ± 2 kg/m3, an electrical conductivity ([1]; 348.15 K) of 0.00779 ± 0.00023 S/m and a viscosity ([1]; 353.15 K) of 33.7 ± 3.7 mPa·s. It also gave a mass density ([1]; 353.15 K) of 1089.39 ± 2 kg/m3, an electrical conductivity ([1]; 353.15 K) of 0.00941 ± 0.00028 S/m and a refractive index ([2]; 293.15 K) of 1.5419 ± 0.0011. It also gave a refractive index ([2]; 298.15 K) of 1.5408 ± 0.0011, a refractive index ([2]; 303.15 K) of 1.5402 ± 0.0011 and a refractive index ([2]; 308.15 K) of 1.539 ± 0.0011. For the same compound, the refractive index ([2]; 313.15 K) was 1.5379 ± 0.0011, the refractive index ([2]; 318.15 K) was 1.5367 ± 0.0011 and the refractive index ([2]; 323.15 K) was 1.5355 ± 0.0011. It also gave a refractive index ([2]; 328.15 K) of 1.5344 ± 0.0011, a refractive index ([2]; 333.15 K) of 1.5329 ± 0.0011 and a refractive index ([2]; 338.15 K) of 1.5317 ± 0.0011. For the same compound, the refractive index ([2]; 343.15 K) was 1.5306 ± 0.0011.
`C[N+](C)(C)CCO.N[C@@H](CO)C(=O)[O-]` [2-hydroxy-N,N,N-trimethylethanaminium L-serinate] gave a viscosity ([1]; 298.15 K) of 11544 ± 1700 mPa·s, a mass density ([1]; 298.15 K) of 1191.51 ± 2 kg/m3 and an electrical conductivity ([1]; 298.15 K) of 0.00093 ± 3e-05 S/m. It also gave a viscosity ([1]; 303.15 K) of 6543.1 ± 930 mPa·s, a mass density ([1]; 303.15 K) of 1188.65 ± 2 kg/m3 and an electrical conductivity ([1]; 303.15 K) of 0.00145 ± 4e-05 S/m. For the same compound, the viscosity ([1]; 308.15 K) was 3793.3 ± 520 mPa·s, the mass density ([1]; 308.15 K) was 1185.79 ± 2 kg/m3 and the electrical conductivity ([1]; 308.15 K) was 0.00229 ± 7e-05 S/m. The viscosity ([1]; 313.15 K) was 2186.5 ± 290 mPa·s, the mass density ([1]; 313.15 K) was 1182.9 ± 2 kg/m3 and the electrical conductivity ([1]; 313.15 K) was 0.00359 ± 0.00011 S/m. For the same compound, the viscosity ([1]; 318.15 K) was 1306 ± 160 mPa·s, the mass density ([1]; 318.15 K) was 1179.92 ± 2 kg/m3 and the electrical conductivity ([1]; 318.15 K) was 0.00553 ± 0.00017 S/m. For the same compound, the viscosity ([1]; 323.15 K) was 811.5 ± 99 mPa·s, the mass density ([1]; 323.15 K) was 1176.87 ± 2 kg/m3 and the electrical conductivity ([1]; 323.15 K) was 0.00833 ± 0.00025 S/m. The viscosity ([1]; 328.15 K) was 522.9 ± 62 mPa·s, the mass density ([1]; 328.15 K) was 1173.97 ± 2 kg/m3 and the electrical conductivity ([1]; 328.15 K) was 0.0122 ± 0.00037 S/m. The viscosity ([1]; 333.15 K) was 346.6 ± 40 mPa·s, the mass density ([1]; 333.15 K) was 1171.2 ± 2 kg/m3 and the electrical conductivity ([1]; 333.15 K) was 0.0175 ± 0.00053 S/m. For the same compound, the viscosity ([1]; 338.15 K) was 237.7 ± 27 mPa·s, the mass density ([1]; 338.15 K) was 1168.38 ± 2 kg/m3 and the electrical conductivity ([1]; 338.15 K) was 0.0266 ± 0.0008 S/m. For the same compound, the viscosity ([1]; 343.15 K) was 167.5 ± 19 mPa·s, the mass density ([1]; 343.15 K) was 1165.5 ± 2 kg/m3 and the electrical conductivity ([1]; 343.15 K) was 0.037 ± 0.0011 S/m. The viscosity ([1]; 348.15 K) was 120.1 ± 13 mPa·s, the mass density ([1]; 348.15 K) was 1162.54 ± 2 kg/m3 and the electrical conductivity ([1]; 348.15 K) was 0.0495 ± 0.0015 S/m. For the same compound, the viscosity ([1]; 353.15 K) was 90.2 ± 10 mPa·s, the mass density ([1]; 353.15 K) was 1159.37 ± 2 kg/m3 and the electrical conductivity ([1]; 353.15 K) was 0.0688 ± 0.0021 S/m. For the same compound, the refractive index ([2]; 293.15 K) was 1.5447 ± 0.0011, the refractive index ([2]; 298.15 K) was 1.5429 ± 0.0011 and the refractive index ([2]; 303.15 K) was 1.5416 ± 0.0011. It also gave a refractive index ([2]; 308.15 K) of 1.5408 ± 0.0011, a refractive index ([2]; 313.15 K) of 1.5397 ± 0.0011 and a refractive index ([2]; 318.15 K) of 1.5388 ± 0.0011. It also gave a refractive index ([2]; 323.15 K) of 1.5382 ± 0.0011, a refractive index ([2]; 328.15 K) of 1.5366 ± 0.0011 and a refractive index ([2]; 333.15 K) of 1.5349 ± 0.0011. The refractive index ([2]; 338.15 K) was 1.5341 ± 0.0011 and the refractive index ([2]; 343.15 K) was 1.5326 ± 0.0011.
